Earlier results, collected in patent publication US8796195B2 (priority 2007, dated 2014).
“And” between values parts separate entries of the source, which are not always exact repeats. Equal values may be shown once.

Legend:
[1] = based on 48% tetrafluoroboric acid

| Structure (SMILES) | pKa | LD50 (toxic by ingestion) [1] |
| --- | --- | --- |
| F [HF, hydrofluoric acid] | 3.4 and ~3.5 | – |
| F[B-](F)(F)F.[H+] [Tetrafluoroboric acid, tetrafluoroboric acid] | approximately −3 | 100 to 464 mg/kg |
